The text below walks through data of patent publication US20220162169A1, “6-OXO-1,6-DIHYDROPYRIDAZINE PRODRUG DERIVATIVE, PREPARATION METHOD THEREFOR, AND APPLICATION THEREOF IN MEDICINE” (JIANGSU HENGRUI MEDICINE CO., LTD., priority 2019, published 2022).

pIC50: −log10 of the molar value. In brackets after ≈: the same amount, converted by molar mass.

Data set [1] in a line: Pharmacokinetics assay in SD rats after intragastric administration, plasma LC/MS/MS. It counts as in vivo. The procedure:
Test Example 2. Pharmacokinetics Assay of the Compounds of the Present Disclosure in Rats
SD rats were used as test animals. The drug concentration in plasma at different time points was determined by LC/MS/MS method after oral administration of the compounds of Example 2, Example 6 and Example 7 to SD rats. The pharmacokinetic behavior of the compounds of the present disclosure was studied and evaluated in SD rats.
Forty SD rats (half male and half female, equally divided into ten groups) were purchased from Shanghai Jiesijie Laboratory Animal Co., LTD. (Certificate No.: SCXK(Shanghai) 2013-0006).
An appropriate amount of the compound of Example 2 was weighed, followed by the addition of 5% of DMSO, 5% of tween 80 and 90% of normal saline successively to obtain a colorless, clear and transparent solution.
An appropriate amount of the compound of Example 2 was weighed, followed by the addition of 0.5% sodium carboxymethyl cellulose (containing 0.5% tween 80) to obtain a white homogeneous suspension.
An appropriate amount of the compound of Example 6 was weighed, and added to 200 mM (5% PVPK30+5% TPGS) Na2HPO4 solution (pH=9) to obtain a homogeneous suspension.
An appropriate amount of the compound of Example 7 was weighed, and added to 200 mM (5% PVPK30+5% TPGS) Na2HPO4 solution (pH=9) to obtain a homogeneous suspension.
After an overnight fast, the SD rats were intragastrically administered the test compounds. Regarding to the compound of Example 2 (formulation: 5% of DMSO, 5% of tween 80 and 90% of normal saline), the administration dose was 2 mg/kg, the administration volume was 10 mL/kg, and the administration concentration was 0.2 mg/mL. Regarding to the compound of Example 2 (formulation: 0.5% sodium carboxymethyl cellulose (containing 0.5% tween 80)), the administration dose was 10, 30, 100 mg/kg, the administration volume was 10 mL/kg, and the administration concentration was 1, 3, 10 mg/mL. Regarding to the compound of Example 6, the administration dose was 100, 300, 900 mg/kg, the administration volume was 10 mL/kg, and the administration concentration was 10, 30, 90 mg/mL. Regarding to the compound of Example 7, the administration dose was 10, 30, 100 mg/kg, the administration volume was 10 mL/kg, and the administration concentration was 1, 3, 10 mg/mL.
After an overnight fast, the SD rats were intragastrically administered the test compounds. 0.2 ml of blood was taken from the orbit before the administration and at 0.5, 1.0, 2.0, 4.0, 6.0, 8.0, 11.0 and 24.0 hours after the administration. The samples were stored in heparinized tubes, and centrifuged for 10 minutes at 3500 rpm to separate the blood plasma. The plasma samples were stored at −20° C. The SD rats were fed 2 hours after the administration.
The content of the test compound in the plasma of SD rats after administration of the test compound at different concentrations was determined: 25 μL of SD rat plasma at each time point after the administration was taken, followed by the addition of 50 μL of the internal standard camptothecin solution (100 ng/mL) and 200 μL of acetonitrile. The resulting solution was vortex-mixed for 5 minutes, and centrifuged for 10 minutes (3700 rpm). 3.0 μL of the supernatant was taken from the plasma samples of the compound of Example 2 (the group at the administration dose of 2 mg/kg) for LC/MS/MS analysis. 2.0 μL of the supernatant was taken from the plasma samples of the compound of Example 2 (the group at the administration dose of 10, 30, or 100 mg/kg) for LC/MS/MS analysis. 0.2 μL of the supernatant was taken from the plasma samples of the compound of Example 6 for LC/MS/MS analysis. 1 μL of the supernatant was taken from the plasma samples of the compound of Example 7 for LC/MS/MS analysis. […]

Data set [2] has as its target T1, NaV1.8 ion channel (Homo sapiens, UniProt Q9Y5Y9).
T1 construct: expressed in transfected cells
As to the kind of experiment: Manual patch clamp, inhibitory activity on NaV1.8 stably expressed on HEK293 cells. The format is cell-based. As to conditions: HEK293 cells stably expressing NaV1.8, manual patch clamp, resting protocol (clamped at -80 mV, depolarized to 10 mV), 1 μM TTX; read-out: IC50 on inhibiting the Nav1.8 channel activity. From the text:
Test Example 3. Determination of the Inhibitory Activity of the Compounds of the Present Disclosure on NaV1.8
The purpose of the experiment is to investigate the effect of the compounds on NaV1.8 ion channel in an in vitro experiment, wherein the NaV1.8 ion channel is stably expressed on HEK293 cells. After the NaV1.8 current becomes stable, the NaV1.8 currents before and after the administration of the compound are compared so as to obtain the effect of the compound on the NaV1.8 ion channel.
Except for NaOH and KOH used for acid titration and base titration, all the compounds used for formulating the extracellular fluid and intracellular fluid were purchased from Sigma (St. Louis, Mo.). Extracellular fluid (mM): NaCl, 137; KCl, 4; CaCl2, 1.8; MgCl2, 1; HEPES, 10; glucose, 10; pH 7.4 (NaOH titration). Intracellular fluid (mM): aspartic acid, 140; MgCl2, 2; EGTA, 11; HEPES, 10; pH 7.2 (CsOH titration). All solutions of test compound and control compound contained 1 μM TTX.
The test compound was dissolved in dimethyl sulfoxide (DMSO) at a stock concentration of 9 mM. The stock solution of the test compound was dissolved in the extracellular fluid on the day of the test and formulated into the required concentration.
1) The compound was formulated into solutions with specified concentrations, the solutions were added to the pipelines respectively in order from low to high concentration, and the pipelines were marked.
2) The cell was transferred to the perfusion tank. A positive pressure was applied to the electrode. The tip of the electrode touched the cell. The three-way valve of the air extracting device was adjusted to a three-way state. […]
The cell was clamped at −80 mV. […] The maximum current caused by the square wave was measured. […] After the response became stable, the blocking intensity was calculated. […]
The inhibitory activity of the compounds of the present disclosure on NaV1.8 was determined by the above test, and the resulting IC50 values are shown in Table 3.
A general note: The patch-clamp technique gives a direct electrical read-out from membranes.

Data set [3] is described as follows: Solubility in PBS solution (pH 7.4) at room temperature. It counts as physicochemical. The note with it: PBS solution (pH 7.4), aqueous buffer, kinetic from dmso stock; PBS pH 7.4, room temperature, 24 hours shaking, 1% DMSO, average of two measurements; read-out: Solubility in PBS pH7.4. The procedure: Test Example 1. Solubility of the Compound of the Present Disclosure in PBS Solution (pH 7.4) at Room Temperature
2.1 Formulation of the PBS solution (pH 7.4): 0.57 g of NaH2PO42.H2O, 5.55 g of Na2HPO4.12H2O and 6.48 g of NaCl were weighed, followed by the addition of ultra-pure water. The pH was adjusted to 7.4±0.05 with 1 M NaOH or 1 M HCl. Water was added until the volume reached 1 L. The PBS solution was stored in a refrigerator at 4° C. (the storage life was 6 months).
2.2 Formulation of the solution of the compound in PBS 7.4: An appropriate amount of the test compound was weighed, and dissolved in DMSO or a mixed solution of DMSO:acetonitrile:ethanol (1:1:1) to obtain a 10 mM stock solution of the test compound. 10 μL of the stock solution of the test compound and 990 μL of the PBS solution (pH 7.4) were precisely measured and placed in a 2 mL sample vial and mixed well, and the DMSO concentration of the final solution was 1% (v/v). This solution was formulated in duplicate, shaken on a plate bed at room temperature for 24 hours, and centrifuged at 5000 rpm for 20 minutes. The supernatant was analyzed by the liquid chromatograph.
2.3 Formulation of the reference solution: 10 μL of the stock solution of the test sample (concentration: 10 mM, dissolved in DMSO) and 990 μL of an organic mixed solvent (usually DMSO:acetonitrile:ethanol=1:1:1) were precisely measured and placed in a 2 mL sample vial, and mixed well to obtain a clear 100 μM sample solution. The solution was filtered through a 0.45 μm organic phase microporous filter membrane, and the filtrate was analyzed by the liquid chromatograph.
Solubility (μM)=peak area of the sample/peak area of the reference*concentration of the reference (μM)*sample solution dilution factor
The average of two measurements was used as the final solubility.

What is called pIC50 is the negative decadic logarithm of the IC50, by convention in mol/L. Usually solubility stands for the concentration that dissolves in the medium under given conditions.

T1 sequence (Q9Y5Y9 whole entry): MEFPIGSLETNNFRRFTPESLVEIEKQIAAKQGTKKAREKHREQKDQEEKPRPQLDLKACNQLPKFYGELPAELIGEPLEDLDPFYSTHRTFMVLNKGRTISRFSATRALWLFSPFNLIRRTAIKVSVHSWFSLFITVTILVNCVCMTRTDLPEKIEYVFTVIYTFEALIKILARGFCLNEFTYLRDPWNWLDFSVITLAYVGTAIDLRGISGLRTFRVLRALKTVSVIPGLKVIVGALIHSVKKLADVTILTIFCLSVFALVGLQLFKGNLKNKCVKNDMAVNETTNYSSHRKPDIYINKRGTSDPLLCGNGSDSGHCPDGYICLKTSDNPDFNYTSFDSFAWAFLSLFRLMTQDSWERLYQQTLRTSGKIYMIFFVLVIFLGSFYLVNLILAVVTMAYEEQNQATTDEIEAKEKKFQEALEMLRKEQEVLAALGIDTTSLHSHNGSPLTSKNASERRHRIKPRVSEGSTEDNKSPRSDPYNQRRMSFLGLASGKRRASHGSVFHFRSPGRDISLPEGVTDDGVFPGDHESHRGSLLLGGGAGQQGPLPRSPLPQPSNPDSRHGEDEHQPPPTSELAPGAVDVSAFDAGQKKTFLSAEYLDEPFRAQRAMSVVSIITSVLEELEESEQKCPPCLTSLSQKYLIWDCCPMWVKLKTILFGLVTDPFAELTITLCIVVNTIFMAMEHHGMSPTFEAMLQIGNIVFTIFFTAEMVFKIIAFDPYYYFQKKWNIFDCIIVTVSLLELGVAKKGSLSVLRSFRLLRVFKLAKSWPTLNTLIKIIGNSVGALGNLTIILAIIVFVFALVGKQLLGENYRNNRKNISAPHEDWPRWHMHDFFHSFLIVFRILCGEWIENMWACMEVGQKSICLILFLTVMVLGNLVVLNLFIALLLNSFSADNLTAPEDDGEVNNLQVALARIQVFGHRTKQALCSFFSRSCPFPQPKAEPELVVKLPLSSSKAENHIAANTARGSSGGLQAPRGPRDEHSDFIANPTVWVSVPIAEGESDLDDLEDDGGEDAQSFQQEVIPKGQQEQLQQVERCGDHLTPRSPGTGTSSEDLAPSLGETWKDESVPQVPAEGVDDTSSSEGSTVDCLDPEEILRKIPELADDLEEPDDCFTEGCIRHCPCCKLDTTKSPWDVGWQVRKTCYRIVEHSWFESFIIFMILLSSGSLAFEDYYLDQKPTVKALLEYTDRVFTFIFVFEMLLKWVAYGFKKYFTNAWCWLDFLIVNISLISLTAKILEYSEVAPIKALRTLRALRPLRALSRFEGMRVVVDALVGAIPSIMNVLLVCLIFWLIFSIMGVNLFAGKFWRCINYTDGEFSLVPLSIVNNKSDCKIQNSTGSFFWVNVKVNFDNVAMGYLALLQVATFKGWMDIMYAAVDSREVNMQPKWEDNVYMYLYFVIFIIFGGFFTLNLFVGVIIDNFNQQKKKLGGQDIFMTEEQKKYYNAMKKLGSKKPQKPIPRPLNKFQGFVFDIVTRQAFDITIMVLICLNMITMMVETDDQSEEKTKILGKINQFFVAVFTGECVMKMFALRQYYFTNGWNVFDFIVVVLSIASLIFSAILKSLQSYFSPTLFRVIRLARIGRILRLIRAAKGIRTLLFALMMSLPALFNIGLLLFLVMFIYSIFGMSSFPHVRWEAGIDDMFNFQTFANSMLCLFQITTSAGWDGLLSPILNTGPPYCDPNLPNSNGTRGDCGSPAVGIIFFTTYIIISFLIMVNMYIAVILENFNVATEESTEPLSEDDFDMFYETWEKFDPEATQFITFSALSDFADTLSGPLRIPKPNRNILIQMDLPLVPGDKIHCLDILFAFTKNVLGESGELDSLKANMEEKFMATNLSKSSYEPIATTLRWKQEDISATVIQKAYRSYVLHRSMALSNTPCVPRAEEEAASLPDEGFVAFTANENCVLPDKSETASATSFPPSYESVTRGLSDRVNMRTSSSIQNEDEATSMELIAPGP

As for `[2H]C([2H])([2H])Oc1cc(F)ccc1Oc1cc(C(F)(F)F)c(Cl)cc1C(=O)Nc1cnn(COC(=O)CCC(=O)O)c(=O)c1` [Example 7, 4-((4-(5-Chloro-2-(4-fluoro-2-(methoxy-d3)phenoxy)-4-(trifluoromethyl)benzamido)-6-oxopyridazin-1(6H)-yl)methoxy)-4-oxobutanoic acid], the “Detection of the administered prodrug compound itself in rat plasma” value in data set [1] (after intragastric administration, LC/MS/MS) is “not detected”. Also, the “In vivo conversion of the prodrug into its metabolite” value in data set [1] (intragastric administration) is recorded as “converted into compound 7d in vivo”. Besides, in data set [2], the pIC50 was 7.84. Also, in data set [3], the solubility at 24 h came to 34.5 µM (≈ 20.4 µg/mL).
